Tests used:
Assay type in all cases: biochemical
FGFR1 = FGFR1 (Homo sapiens (Human), UniProt P11362); assay: FGFR enzymatic assay (FRET peptide phosphorylation), FGFR1; details: FGFR1 enzyme 0.02 nM, ATP 210 μM
In short: (§1)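 Recombinant kinase was pre-incubated 5–10 min with serially diluted inhibitor in HEPES buffer (10 mM MgCl2, 5 mM DTT, pH 7.5; buffer described for FGFR3). Peptide phosphorylation ran 1 h at 25 °C and was detected by FRET after ~1 h equilibration. IC50 values come from variable-slope sigmoidal fits.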

FGFR2 = FGFR2 (Homo sapiens (Human), UniProt P21802); assay: FGFR enzymatic assay (FRET peptide phosphorylation), FGFR2; details: FGFR2 enzyme 0.01 nM, ATP 100 μM
Chain of FGFR2 (P21802 22-821): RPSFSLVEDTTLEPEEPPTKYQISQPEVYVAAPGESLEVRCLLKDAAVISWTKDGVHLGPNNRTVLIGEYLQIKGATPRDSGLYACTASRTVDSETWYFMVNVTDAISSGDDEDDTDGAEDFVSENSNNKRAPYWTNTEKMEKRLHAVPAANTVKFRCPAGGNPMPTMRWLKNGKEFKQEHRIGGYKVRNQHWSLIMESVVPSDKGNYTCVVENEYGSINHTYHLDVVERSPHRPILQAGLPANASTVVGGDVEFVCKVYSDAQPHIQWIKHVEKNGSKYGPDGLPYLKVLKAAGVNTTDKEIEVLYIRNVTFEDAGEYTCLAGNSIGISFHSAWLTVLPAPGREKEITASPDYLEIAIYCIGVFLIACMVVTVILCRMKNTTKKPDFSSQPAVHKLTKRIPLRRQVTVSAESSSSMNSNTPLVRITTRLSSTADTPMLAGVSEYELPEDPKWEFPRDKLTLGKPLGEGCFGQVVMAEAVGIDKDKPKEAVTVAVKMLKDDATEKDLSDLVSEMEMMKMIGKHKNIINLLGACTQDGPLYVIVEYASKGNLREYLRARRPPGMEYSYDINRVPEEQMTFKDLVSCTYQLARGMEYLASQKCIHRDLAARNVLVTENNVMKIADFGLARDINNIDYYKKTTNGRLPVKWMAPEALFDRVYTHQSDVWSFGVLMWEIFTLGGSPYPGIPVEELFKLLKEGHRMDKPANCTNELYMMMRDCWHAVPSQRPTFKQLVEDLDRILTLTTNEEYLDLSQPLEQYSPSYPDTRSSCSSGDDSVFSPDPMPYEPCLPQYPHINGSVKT
In short: as §1

FGFR3 = FGFR3 (Homo sapiens (Human), UniProt P22607); assay: FGFR enzymatic assay (FRET peptide phosphorylation), FGFR3; details: FGFR3 enzyme (Millipore), ATP 140 μM
Chain of FGFR3 (P22607 23-806): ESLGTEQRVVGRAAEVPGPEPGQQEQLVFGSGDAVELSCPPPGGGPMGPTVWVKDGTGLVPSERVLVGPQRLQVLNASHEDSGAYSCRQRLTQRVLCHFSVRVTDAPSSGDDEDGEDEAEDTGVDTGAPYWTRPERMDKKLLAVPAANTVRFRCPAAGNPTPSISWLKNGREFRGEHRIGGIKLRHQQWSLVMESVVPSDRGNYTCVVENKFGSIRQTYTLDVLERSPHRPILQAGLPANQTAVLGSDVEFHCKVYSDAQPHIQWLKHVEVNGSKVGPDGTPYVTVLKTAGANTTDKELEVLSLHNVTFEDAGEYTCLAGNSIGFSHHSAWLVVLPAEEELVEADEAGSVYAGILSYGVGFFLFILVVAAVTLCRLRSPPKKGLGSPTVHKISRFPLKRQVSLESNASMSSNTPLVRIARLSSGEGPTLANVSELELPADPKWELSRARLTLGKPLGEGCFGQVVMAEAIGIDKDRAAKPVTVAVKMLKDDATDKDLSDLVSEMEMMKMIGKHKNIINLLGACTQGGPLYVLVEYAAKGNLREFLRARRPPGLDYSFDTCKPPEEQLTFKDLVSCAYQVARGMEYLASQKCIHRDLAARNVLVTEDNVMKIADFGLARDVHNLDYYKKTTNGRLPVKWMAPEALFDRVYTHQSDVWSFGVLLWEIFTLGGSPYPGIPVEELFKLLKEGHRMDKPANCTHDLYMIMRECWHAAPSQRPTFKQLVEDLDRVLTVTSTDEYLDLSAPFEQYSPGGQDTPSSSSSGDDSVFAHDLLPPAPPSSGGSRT
In short: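 FRET assay of peptide phosphorylation by FGFR3 in HEPES pH 7.5 buffer with MgCl2, EGTA, Tween-20 and DTT. Enzyme was pre-incubated 5-10 min with compound, and the reaction ran 1 hr at 25° C. IC50 came from a variable-slope sigmoidal fit.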

Measured: IC50

Chain of FGFR1 (P11362 22-822): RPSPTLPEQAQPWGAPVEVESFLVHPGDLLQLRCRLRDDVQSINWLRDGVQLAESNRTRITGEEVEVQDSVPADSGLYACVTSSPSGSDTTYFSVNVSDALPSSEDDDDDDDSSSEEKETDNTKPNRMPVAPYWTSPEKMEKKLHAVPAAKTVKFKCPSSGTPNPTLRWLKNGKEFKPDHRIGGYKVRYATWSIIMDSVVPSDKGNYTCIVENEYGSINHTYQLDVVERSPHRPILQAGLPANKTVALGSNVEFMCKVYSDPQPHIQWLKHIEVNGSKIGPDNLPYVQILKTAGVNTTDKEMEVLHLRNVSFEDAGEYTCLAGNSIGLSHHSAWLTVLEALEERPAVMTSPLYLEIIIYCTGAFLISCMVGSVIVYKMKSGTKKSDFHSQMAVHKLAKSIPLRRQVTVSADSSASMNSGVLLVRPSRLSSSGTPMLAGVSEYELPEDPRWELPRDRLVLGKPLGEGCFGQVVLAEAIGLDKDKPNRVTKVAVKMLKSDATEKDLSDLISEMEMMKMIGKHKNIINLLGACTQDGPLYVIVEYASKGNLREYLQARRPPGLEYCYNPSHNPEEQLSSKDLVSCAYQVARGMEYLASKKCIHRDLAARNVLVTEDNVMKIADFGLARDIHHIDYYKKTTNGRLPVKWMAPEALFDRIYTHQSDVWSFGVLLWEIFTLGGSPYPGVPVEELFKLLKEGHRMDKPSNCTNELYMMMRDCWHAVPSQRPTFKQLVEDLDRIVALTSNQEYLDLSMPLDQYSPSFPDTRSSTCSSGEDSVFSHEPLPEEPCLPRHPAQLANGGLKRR

COc1cc(OC)c(F)c(N2Cc3cnc4[nH]c(CN[C@@H]5CCOC5)cc4c3N(C)C2=O)c1F [Example 136, 3-(2,6-difluoro-3,5-dimethoxyphenyl)-1-methyl-8-{[(3R)-tetrahydrofuran-3-ylamino]methyl}-1,3,4,7-tetrahydro-2Hpyrrolo[3′,2′:5,6]pyrido[4,3-d]pyrimidin-2-one]
< 100 nM: all assays above

CCN1C(=O)N(c2c(F)c(OC)cc(OC)c2F)Cc2cnc3[nH]c(CCN4CCOCC4)cc3c21 [Example 185, 3-(2,6-difluoro-3,5-dimethoxyphenyl)-1-ethyl-8-(2-morpholin-4-ylethyl)-1,3,4,7-tetrahydro-2H-pyrrolo[3′,2′:5,6]pyrido[4,3-d]pyrimidin-2-one]
< 100 nM: all assays above

COc1cc(OC)c(F)c(N2Cc3cnc4[nH]c(CCCN5CCN(C6CC6)CC5)cc4c3N(C)C2=O)c1F [Example 118, 8-[3-(4-cyclopropylpiperazin-1-yl)propyl]-3-(2,6-difluoro-3,5-dimethoxyphenyl)-1-methyl-1,3,4,7-tetrahydro-2H-pyrrolo[3′,2′:5,6]pyrido[4,3-d]pyrimidin-2-one]
< 100 nM: all assays above

COc1cc(OC)c(F)c(N2Cc3cnc4[nH]c(CN5CCCC(F)(F)C5)cc4c3N(C)C2=O)c1F [Example 113, 3-(2,6-difluoro-3,5-dimethoxyphenyl)-8-[(3,3-difluoropiperidin-1-yl)methyl]-1-methyl-1,3,4,7-tetrahydro-2H-pyrrolo[3′,2′:5,6]pyrido[4,3-d]pyrimidin-2-one]
< 100 nM: all assays above

COc1cc(OC)c(F)c(N2Cc3cnc4[nH]nc(C5CCN(C)CC5)c4c3N(C)C2=O)c1F [Example 55, 3-(2,6-Difluoro-3,5-dimethoxyphenyl)-1-methyl-9-(1-methylpiperidin-4-yl)-1,3,4,7-tetrahydro-2H-pyrazolo[4′,3′:5,6]pyrido[4,3-d]pyrimidin-2-one]
< 100 nM: all assays above

COc1cc(OC)cc(N2Cc3cnc4[nH]c(C5CCN(C)CC5)cc4c3N(C)C2=O)c1 [Example 18, 3-(3,5-Dimethoxyphenyl)-1-methyl-8-(1-methylpiperidin-4-yl)-1,3,4,7-tetrahydro-2H-pyrrolo[3′,2′:5,6]pyrido[4,3-d]pyrimidin-2-one]
< 100 nM: all assays above

COc1cc(OC)cc(N2Cc3cnc4[nH]c(C(=O)N5CCC(O)C5)cc4c3N(C)C2=O)c1 (stereo not drawn) [Example 21, 3-(3,5-Dimethoxyphenyl)-8-[(3-hydroxypyrrolidin-1-yl)carbonyl]-1-methyl-1,3,4,7-tetrahydro-2H-pyrrolo[3′,2′:5,6]pyrido[4,3-d]pyrimidin-2-one]
< 100 nM: all assays above

COc1cc(OC)c(F)c(N2Cc3cnc4[nH]ncc4c3N(c3cccc(C#N)c3)C2=O)c1F [Example 93, 3-[3-(2,6-difluoro-3,5-dimethoxyphenyl)-2-oxo-2,3,4,7-tetrahydro-1H-pyrazolo[4′,3′:5,6]pyrido[4,3-d]pyrimidin-1-yl]benzonitrile]
< 100 nM: all assays above

COc1cc(OC)c(F)c(N2Cc3cnc4c(c3N(c3ccc(C#N)cc3F)C2=O)CC(=O)N4)c1F [Example 125, 4-[3-(2,6-difluoro-3,5-dimethoxyphenyl)-2,8-dioxo-2,3,4,7,8,9-hexahydro-1H-pyrrolo[3′,2′:5,6]pyrido[4,3-d]pyrimidin-1-yl]-3-fluorobenzonitrile]
< 100 nM: all assays above

COc1cc(OC)c(F)c(N2Cc3cnc4[nH]ccc4c3NC2=O)c1F [Example 103, 3-(2,6-difluoro-3,5-dimethoxyphenyl)-1,3,4,7-tetrahydro-2H-pyrrolo[3′,2′:5,6]pyrido[4,3-d]pyrimidin-2-one]
< 100 nM: all assays above

COc1cc(OC)c(F)c(N2Cc3cnc4[nH]c(C(=O)N5CCC(C#N)C5)cc4c3N(C)C2=O)c1 (stereo not drawn) [Example 29, 1-{[3-(2-Fluoro-3,5-dimethoxyphenyl)-1-methyl-2-oxo-2,3,4,7-tetrahydro-1H-pyrrolo[3′,2′:5,6]pyrido[4,3-d]pyrimidin-8-yl]carbonyl}pyrrolidine-3-carbonitrile]
< 100 nM: all assays above

CCN1CCN(CCc2cc3c4c(cnc3[nH]2)CN(c2c(F)c(OC)cc(OC)c2F)C(=O)N4c2ccccc2F)CC1 [Example 198, 3-(2,6-difluoro-3,5-dimethoxyphenyl)-1-(2-fluorophenyl)-8-[2-(4-ethylpiperazin-1-yl)ethyl]-1,3,4,7-tetrahydro-2H-pyrrolo[3′,2′:5,6]pyrido[4,3-d]pyrimidin-2-one]
< 100 nM: all assays above

COc1cc(OC)c(F)c(N2Cc3cnc4[nH]ncc4c3N(Cc3cccc(C)n3)C2=O)c1F [Example 217, 3-(2,6-difluoro-3,5-dimethoxyphenyl)-1-[(6-methylpyridin-2-yl)methyl]-1,3,4,7-tetrahydro-2H-pyrazolo[4′,3′:5,6]pyrido[4,3-d]pyrimidin-2-one]
< 100 nM: all assays above

COc1cc(OC)c(F)c(N2Cc3cnc4[nH]c(CCN5CCOCC5)cc4c3N(c3ccc(F)cc3)C2=O)c1F [Example 225, 3-(2,6-difluoro-3,5-dimethoxyphenyl)-1-(4-fluorophenyl)-8-(2-morpholin-4-ylethyl)-1,3,4,7-tetrahydro-2H-pyrrolo[3′,2′:5,6]pyrido[4,3-d]pyrimidin-2-one]
< 100 nM: all assays above

CCN1CCN(CCCc2cc3c4c(cnc3[nH]2)CN(c2c(F)c(OC)cc(OC)c2F)C(=O)N4C)CC1 [Example 72, 3-(2,6-difluoro-3,5-dimethoxyphenyl)-8-[3-(4-ethylpiperazin-1-yl)propyl]-1-methyl-1,3,4,7-tetrahydro-2H-pyrrolo[3′,2′:5,6]pyrido[4,3-d]pyrimidin-2-one]
< 100 nM: all assays above

COc1cc(CN2C(=O)N(c3c(F)c(OC)cc(OC)c3F)Cc3cnc4[nH]c(CN5CCOCC5)cc4c32)ccn1 [Example 202, 3-(2,6-difluoro-3,5-dimethoxyphenyl)-1-[(2-methoxypyridin-4-yl)methyl]-8-(morpholin-4-ylmethyl)-1,3,4,7-tetrahydro-2H-pyrrolo[3′,2′:5,6]pyrido[4,3-d]pyrimidin-2-one]
< 100 nM: all assays above

COc1cc(OC)c(F)c(N2Cc3cnc4c(c3N(c3ncccc3Cl)C2=O)CC(=O)N4)c1F [Example 147, 1-(3-chloropyridin-2-yl)-3-(2,6-difluoro-3,5-dimethoxyphenyl)-3,4,7,9-tetrahydro-1H-pyrrolo[3′,2′:5,6]pyrido[4,3-d]pyrimidine-2,8-dione]
< 100 nM: all assays above

COc1cc(OC)c(F)c(N2Cc3cnc4c(c3N(Cc3cccc(C#N)c3)C2=O)CC(=O)N4)c1F [Example 123, 3-{[3-(2,6-difluoro-3,5-dimethoxyphenyl)-2,8-dioxo-2,3,4,7,8,9-hexahydro-1H-pyrrolo[3′,2′:5,6]pyrido[4,3-d]pyrimidin-1-yl]methyl}benzonitrile]
< 100 nM: all assays above

COc1cc(OC)c(F)c(N2Cc3cnc4c(c3N(C3CC3)C2=O)CC(=O)N4)c1F [Example 48, 1-Cyclopropyl-3-(2,6-difluoro-3,5-dimethoxyphenyl)-3,4,7,9-tetrahydro-1H-pyrrolo[3′,2′:5,6]pyrido[4,3-d]pyrimidine-2,8-dione]
< 100 nM: all assays above

COc1cc(OC)c(F)c(N2Cc3cnc4[nH]c(CN5CCOCC5)cc4c3N(C)C2=O)c1F [Example 110, 3-(2,6-difluoro-3,5-dimethoxyphenyl)-1-methyl-8-(morpholin-4-ylmethyl)-1,3,4,7-tetrahydro-2H-pyrrolo[3′,2′:5,6]pyrido[4,3-d]pyrimidin-2-one]
< 100 nM: all assays above

COc1cc(OC)c(F)c(N2Cc3cnc4[nH]c(Cn5ccnc5)cc4c3N(C)C2=O)c1F [Example 137, 3-(2,6-difluoro-3,5-dimethoxyphenyl)-8-(1H-imidazol-1-ylmethyl)-1-methyl-1,3,4,7-tetrahydro-2H-pyrrolo[3′,2′:5,6]pyrido[4,3-d]pyrimidin-2-one]
< 100 nM: all assays above

COc1cc(OC)cc(N2Cc3cnc4[nH]ccc4c3N(CC3CC3)C2=O)c1 [Example 5, 1-(Cyclopropylmethyl)-3-(3,5-dimethoxyphenyl)-1,3,4,7-tetrahydro-2H-pyrrolo[3′,2′:5,6]pyrido[4,3-d]pyrimidin-2-one]
< 100 nM: all assays above

COc1cc(OC)c(F)c(N2Cc3cnc4[nH]c(CN5CCC(C#N)CC5)cc4c3C(C)(C)C2=O)c1F [Example 155, 1-{[7-(2,6-difluoro-3,5-dimethoxyphenyl)-9,9-dimethyl-8-oxo-6,7,8,9-tetrahydro-3H-pyrrolo[2,3-c]-2,7-naphthyridin-2-yl]methyl}piperidine-4-carbonitrile]
< 100 nM: all assays above
